The subject of series [1] is βTC3 cells. As to the kind of experiment: MTT cell viability assay in βTC3 cells. The class given is cell-based, mouse. The procedure:
1A: Glutamate induces a dose-dependent beta-cell death. 24 hrs after plating, αTC1 and βTC3 cells were incubated for five days with the indicated glutamate concentrations and viability was assessed by MTT assay. Data are presented as % Relative Growth Rate (RGR) versus controls (100%) and represent the mean±SE of at least 7 independent experiments (n=6). * p<0.01 vs ctrl; ° p<0.01 vs Glu 5 mM in αTC1.
1C: β-cell death is prevented by pharmacological inhibition of ionotropic channels. 24 hrs after plating, αTC1 and βTC3 cells were incubated for five days with 0.025 mM CNQX (left panel) or 0.1 mM APV (right panel), in the presence or the absence of 5 mM glutamate and viability was assessed by MTT assay. Data are presented as % RGR versus control samples (100%) and represent the mean±SE of three independent experiments (n=5). * p<0.05
6B. MTT assay. 24 hrs after plating, αTC1 and βTC3 cells were incubated for five days with different DHK concentrations and viability was assessed by MTT assay. Data are presented as % RGR versus control (100%) and represent the mean±SE of three independent experiments (n=8). * (DHK versus control) p<0.05
8B: MTT assay: 24 hrs after plating, βTC3 cells were incubated for five days with the indicated ceftriaxone concentrations in the presence or absence of 5 mM glutamate and viability was assayed by MTT assay. Data are presented as % RGR versus control (100%) and represent the mean±SE of three independent experiments (n=8). *(ceftriaxone versus relative control) p<0.05.
βTC3 and αTC1 cells were derived from progeny of transgenic mice expressing SV40 large T-antigen under control of the rat insulin II 5′-flanking region or rat preproglucagon 5′-flanking region, respectively (Powers et al, 1990) and were originally provided by Douglas Hanahan (Department of Biochemistry and Biophysics, University of California, San Francisco, Calif.). βTC3 were grown in RPMI 1640 11 mM glucose, supplemented with 10% heat inactivated fetal bovine serum, 2 mM L-glutamine, and 100 IU/ml streptomycin/penicillin, as previously described (Galbiati et al, 2002). Experiments were performed between the 27 and 33 passage of cell culture.
(§1) 3-(4,5-Dimethylthiazol-2-yl)-2,5-diphenyltetrazolium bromide (MTT) assay. βTC3 cells were seeded at a density of 8×10^3 cells/well onto 96-well culture plates. Cells were allowed to attach and grow for 24 h in standard medium. Then medium was replaced with fresh medium containing glutamate, DHK (Dihydrokainic Acid, Sigma Aldrich), glutamate receptor inhibitors APV and CNQX (Sigma Aldrich) or ceftriaxone (Sigma Aldrich) at the indicated concentrations. […] Coloured formazan product was determined spectrophotometrically at 540 nm. 20 islets/tube were used to assess viability in human isolated islets. Data are expressed as % Relative Growth Rate (% RGR) versus control samples.

The subject of series [2] is human isolated islets. The class given is cell-based. The note with it: 16.7 mM glucose; DHK (0.3 mM) or L-glutamate (0.5 mM) alone. The procedure: FIG. 5: GLT1 CONTROLS HORMONE SECRETION IN HUMAN ISOLATED ISLETS. 48 hours after isolation, 20 human islets per tube were exposed to 3.3 or 16.7 mM glucose in the absence and the presence of either L-glutamate (0.5 mM), DHK (0.3 mM) or both L-glutamate and DHK, and insulin secretion measured. Levels of secreted insulin from islets were normalized to total insulin content. Data are expressed as % of insulin content and represent the mean±SD of two independent experiments performer in duplicate.
Insulin content and secretion were assessed on 20 islets, using a Micro-particle Enzyme Immunoassay (MEIA insulin, IMX System, Abbott Laboratories, Abbott Park, Ill., USA). Insulin secretion in response to increasing glucose concentrations, glutamate or DHK treatment was assessed by static incubation as previously described (Federici et al, 2000). Briefly, batches of 20 islets were pre-incubated in 1 ml of Krebs-Ringer buffer (KRB) supplemented with 3, 3 or 16.7 mM glucose for 30 min. Then the supernatants were replaced with Kreb's buffer containing 3, 3 or 16.7 mM glucose plus glutamate or the specific GLT1 inhibitor DHK (Sigma, St Louis, Mo., USA), as indicated. After a 30-min incubation at 37° C., the medium was removed and frozen for immunoassays. At the end of incubation, islets were lysed in lyses buffer and the total insulin content determined by immunoassay. […]

Series [3] relates to human isolated islets. Briefly: MTT viability assay in isolated human islets. The class given is cell-based. The note with it: 5 mM glutamate, three days, 16.7 mM glucose. On the procedure: 7A: MTT assay: 48 hrs after isolation, 20 islets/tube were incubated for three days with the indicated glutamate and DHK concentrations in the presence of 3.3 mM glucose or 16.7 mM glucose and viability was assessed by MTT assay. Data are expressed as % Relative Growth Rate (% RGR) versus control samples and are the means±SE of three different experiments performed in triplicate.
Human pancreatic islets were isolated from the pancreases of cadaveric multiorgan donors by using the procedure already described by Ricordi (Ricordi, et al, 1988). The islets used in this study were isolated from eight different organs. After the isolation, the islets were purified from the contaminant exocrine tissue by centrifugation on Ficoll gradients, obtaining a final purity that ranged from 60% to 80%, as assayed by dithizone staining (Ricordi et al, 1988). Islets were then cultured in RPMI 1640 tissue culture medium. […]
3-(4,5-Dimethylthiazol-2-yl)-2,5-diphenyltetrazolium bromide (MTT) assay. βTC3 cells were seeded at a density of 8×10^3 cells/well onto 96-well culture plates. […] After five days incubation, cell viability was assessed using the MTT method, according to the manufacturer's protocols (Sigma Aldrich). Coloured formazan product was determined spectrophotometrically at 540 nm. […] Data are expressed as % Relative Growth Rate (% RGR) versus control samples.
In general terms: Tetrazolium assays rely on reduction of a dye to a coloured formazan, in cell work by metabolically active cells.

In series [4] the test system is αTC1 cells. Briefly: MTT cell viability assay in αTC1 cells. The class given is cell-based, mouse. On the procedure:
1A: Glutamate induces a dose-dependent beta-cell death. […] Data are presented as % Relative Growth Rate (RGR) versus controls (100%) and represent the mean±SE of at least 7 independent experiments (n=6). * p<0.01 vs ctrl; ° p<0.01 vs Glu 5 mM in αTC1.
αTC1 were cultured in DMEM 25 mM glucose supplemented with 10% heat inactivated fetal bovine serum, 2 mM glutamine, and 100 IU/ml streptomycin/penicillin, as previously described (Galbiati et al, 2002). Experiments were performed between the 33 and 43 passage of cell culture. Cells were cultured under standard humidified conditions of 5% CO2 at 37° C.
as §1

Series [5] deals with βTC3 cells. As to the kind of experiment: TUNEL apoptosis assay in βTC3 cells. The class given is cell-based. The note with it: 0.5 mM glutamate for 5 days. The procedure: 1B: Glutamate overstimulation causes increased β-cell apoptosis. 24 hours after plating, βTC3 cells were incubated for five days with 0.5 mM glutamate, and cell apoptosis was assessed by TUNEL assay. The cell nuclei were labelled with PrI. Histograms on the right represent TUNEL positive cells per field, and are the mean±SE of two independent experiments performed in duplicate.
6C TUNEL assay: 24 hours after plating, βTC3 cells were incubated for five days with 0.1 mM DHK, and cell apoptosis was assessed by TUNEL assay. Cell nuclei were labelled with PrI. Data are presented as TUNEL positive cells per field (histograms on the right), and are the mean±SE of two independent experiments performed in duplicate. * P<0.05
(§2) 6D ShRNA interference. βTC3 cells were transfected with two different shRNA directed against GLT1 (Sh1, Sh3) or a control shRNA (ShC), and three days after transfection, cells were assayed for 3[H]-D-aspartate uptake (b) or lysed and the presence of GLT assayed by western blotting (a) or fixed and processed for TUNEL (c).
Apoptosis of β-TC3 cells was estimated using the terminal deoxynucleotidyltransferase-mediated dUTP-biotin nick end-labelling assay (TUNEL). […] Tunel-positive cells were counted by two independent observers using a 40× objective from at least 40 randomly selected fields per coverslip. […]

In series [6] the test system is GLT1. Briefly: GLT1 expression in βTC3 cells by western blotting. The class given is cell-based, mouse. The settings on record: 10 μM ceftriaxone, five days. The procedure:
as §2
8A: GL1 expression. 150.000 cells were plated on […] diameter Petri dishes and 24 hours after plating, they were incubated with 10 μM ceftriaxone for five days. After incubation cells were lysed and 100 μg of whole lysate extracts were separated onto a 9% SDS-PAGE and the expression of glutamate transporter was detected using specific anti-GLT1 or anti-β-catenin antibodies. The expression of GLT1 was quantified by densitometry, and normalized over β-catenin content. Shown is a representative experiment; Similar results were obtained in two other independent experiments.
βTC3 or αTC1 cells were seeded onto 6-cm tissue culture plates and allowed to attach and grow until confluence. […] After 1 h at 4 C, lysates were centrifuged at 13,000 rpm for 10 min, and 50 μg of total extracted proteins were analyzed on 9% SDS-PAGE and transferred onto nitrocellulose (Shleicher and Shull, Dassel, Germany). […] The signal intensities were densitometrically quantified using Scion Image software. […]
In general terms: A western blot detects proteins with antibodies after separation by electrophoresis.

[7] abbreviates: acute exposure (15 min, 0.5 μM glutamate) or exposure for 2 days.

Molecules are shown by their SMILES.

With `N#Cc1cc2c(cc1[N+](=O)[O-])=NC(=O)C(=O)N=2` [CNQX, 6-Cyano-7-nitroquinoxaline-2,3-dione], the “increase in RGR relative to 5 mM glutamate” value in series [1] (0.025 mM CNQX with 5 mM glutamate, five days) is reported as 30%. In addition, the “prevention of vulnerability of β-cells to glutamate” value in series [1] (co-administration with 5 mM glutamate, five days, 0.025 mM CNQX or 0.1 mM APV) is “partially prevented”.

As to `N[C@@H](CCC(=O)O)C(=O)O` [glutamate], the “effect on insulin secretion” value in series [2] was “No effect”. In addition, the “reduction in RGR (cell viability)” value worked out at 11.53 ± 0.52% in series [1] (0.05 mM glutamate, five days) and 51.46 ± 2.61% in series [1] (5 mM glutamate, five days). The “effect on cell survival” value in series [1] (setting [7]) and in series [4] (setting [7]) was “did not find any effect” each time. Also, the “RGR decrease (cell viability)” value in series [3] was 18%. Besides, in series [4] (0.05 to 5 mM glutamate, five days), the “glutamate toxicity (cell viability)” value is reported as “detectable only at the highest glutamate concentration (5 mM)”. Besides, in series [5], the “number of TUNEL positive cells” value was “significant increase”.

In the case of `CO/N=C(\C(=O)N[C@@H]1C(=O)N2C(C(=O)O)=C(CSc3nc(=O)c(=O)[nH]n3C)CS[C@H]12)c1csc(N)n1` [ceftriaxone], in series [6], the GLT1/EAAT2 transporter expression result was “increased transporter's expression”. In series [1] (five days with ceftriaxone, 5 mM glutamate), the “protection from glutamate toxicity” value is listed as “dose-dependent protection”.
